Reference: US9695155B2, “Herbicidal substituted pyrimidinyloxy benzene compounds” (E. I. DU PONT DE NEMOURS AND COMPANY, priority 2013, dated 2017)

Assays:
blackgrass [1] = test: Test D preemergence; assay type: in vivo, Alopecurus myosuroides
Source text: (§1) Seeds of plant species selected from bluegrass (annual bluegrass, Poa annua), blackgrass (Alopecurus myosuroides), canarygrass (littleseed canarygrass, Phalaris minor), chickweed (common chickweed, Stellaria media), galium (catchweed bedstraw, Galium aparine), bromegrass, downy (downy bromegrass, Bromus tectorum), field poppy (Papaver rhoeas), field violet (Viola arvensis), green foxtail (Setaria viridis), deadnettle (henbit deadnettle, Lamium amplexicaule), Italian ryegrass (Lolium multiflorum), kochia (Kochia scoparia), lambsquarters (Chenopodium album), oilseed rape (Brassica napus), pigweed (Amaranthus retroflexus), chamomile (scentless chamomile, Matricaria inodora), Russian thistle (Salsola kali), speedwell (bird's-eye speedwell, Veronica persica), spring barley (Hordeum vulgare), spring wheat (Triticum aestivum), wild buckwheat (Polygonum convolvulus), wild mustard (Sinapis arvensis), wild oat (Avena fatua), wild radish (Raphanus raphanistrum), windgrass (Apera spica-venti), winter barley (Hordeum vulgare), and winter wheat (Triticum aestivum) were planted into a silt loam soil and treated preemergence with test chemicals formulated in a non-phytotoxic solvent mixture which included a surfactant.
(§2) At the same time, these species were planted in pots containing Redi-Earth® planting medium (Scotts Company, 14111 Scottslawn Road, Marysville, Ohio 43041) comprising spaghnum peat moss, vermiculite, wetting agent and starter nutrients and treated with postemergence applications of the test chemicals formulated in the same manner. Plants ranged in height from 2 to 18 cm (1- to 4-leaf stage). Treated plants and controls were maintained in a controlled growth environment for 7 to 21 days after which time all species were compared to controls and visually evaluated. Plant response ratings, summarized in Table D, are based on a scale of 0 to 100 where 0 is no effect and 100 is complete control. A dash (-) response means no test result.

canarygrass = test: Test D preemergence; assay type: in vivo, Phalaris minor
Source text: as §1, §2

green foxtail = test: Test D preemergence; assay type: in vivo, Setaria viridis
Source text: as §1, §2

blackgrass [2] = test: Test D postemergence; assay type: in vivo, Alopecurus myosuroides
Source text: as §1, §2

field violet = test: Test D postemergence; assay type: in vivo, Viola arvensis
Source text: as §1, §2

lambsquarters = test: Test D postemergence; assay type: in vivo, Chenopodium album
Source text: as §1, §2

chamomile = test: Test D postemergence; assay type: in vivo, Matricaria inodora
Source text: as §1, §2

wild radish = test: Test D postemergence; assay type: in vivo, Raphanus raphanistrum
Source text: as §1, §2

[3] = 16 g ai/ha, scale 0 (no effect) to 100 (complete control)
[4] = 31 g ai/ha, scale 0 to 100 (0 no effect, 100 complete control)
[5] = 62 g ai/ha, scale 0 to 100 (0 no effect, 100 complete control)
[6] = 125 g ai/ha, scale 0 to 100 (0 no effect, 100 complete control)

N#Cc1cccc(Oc2ncc(Cl)cn2)c1-n1cc(Br)cn1 [Compound 52, 2-(4-bromo-1H-pyrazol-1-yl)-3-[(5-chloro-2-pyrimidinyl)oxy]benzonitrile]
pest or weed control at 31 g/ha (blackgrass [1]; Alopecurus myosuroides, pre-emergence, 31 g ai/ha, scale 0-100, read-out: Plant response rating, Blackgrass): 5% | pest or weed control at 62 g/ha (blackgrass [1]; Alopecurus myosuroides, pre-emergence, 62 g ai/ha, scale 0-100, read-out: Plant response rating, Blackgrass): 5% | pest or weed control at 125 g/ha (blackgrass [1]; Alopecurus myosuroides, pre-emergence, 125 g ai/ha, scale 0-100, read-out: Plant response rating, Blackgrass): 30% | pest or weed control at 250 g/ha (blackgrass [1]; Alopecurus myosuroides, pre-emergence, 250 g ai/ha, scale 0-100, read-out: Plant response rating, Blackgrass): 95% | pest or weed control at 31 g/ha (canarygrass; Phalaris minor, pre-emergence, 31 g ai/ha, scale 0-100, read-out: Plant response rating, Canarygrass): 0% | pest or weed control at 62 g/ha (canarygrass; Phalaris minor, pre-emergence, 62 g ai/ha, scale 0-100, read-out: Plant response rating, Canarygrass): 0% | pest or weed control at 125 g/ha (canarygrass; Phalaris minor, pre-emergence, 125 g ai/ha, scale 0-100, read-out: Plant response rating, Canarygrass): 35% | pest or weed control at 250 g/ha (canarygrass; Phalaris minor, pre-emergence, 250 g ai/ha, scale 0-100, read-out: Plant response rating, Canarygrass): 55% | pest or weed control at 31 g/ha (green foxtail; Setaria viridis, pre-emergence, 31 g ai/ha, scale 0-100, read-out: Plant response rating, Foxtail, Green): 20% | pest or weed control at 62 g/ha (green foxtail; Setaria viridis, pre-emergence, 62 g ai/ha, scale 0-100, read-out: Plant response rating, Foxtail, Green): 60% | pest or weed control at 125 g/ha (green foxtail; Setaria viridis, pre-emergence, 125 g ai/ha, scale 0-100, read-out: Plant response rating, Foxtail, Green): 100% | pest or weed control at 250 g/ha (green foxtail; Setaria viridis, pre-emergence, 250 g ai/ha, scale 0-100, read-out: Plant response rating, Foxtail, Green): 100% | pest or weed control at 62 g/ha (blackgrass [2]; Alopecurus myosuroides, post-emergence, Postemergence, 62 g ai/ha, scale 0 to 100 (0 no effect, 100 complete control), read-out: Plant response rating, Blackgrass): 30% | pest or weed control at 31 g/ha (blackgrass [2]; Alopecurus myosuroides, post-emergence, Postemergence, 31 g ai/ha, scale 0 to 100 (0 no effect, 100 complete control), read-out: Plant response rating, Blackgrass): 30% | pest or weed control at 125 g/ha (blackgrass [2]; Alopecurus myosuroides, post-emergence, Postemergence, 125 g ai/ha, scale 0 to 100 (0 no effect, 100 complete control), read-out: Plant response rating, Blackgrass): 40% | pest or weed control at 250 g/ha (blackgrass [2]; Alopecurus myosuroides, post-emergence, Postemergence, 250 g ai/ha, scale 0 to 100 (0 no effect, 100 complete control), read-out: Plant response rating, Blackgrass): 65% | pest or weed control at 31 g/ha (field violet; Viola arvensis, post-emergence, 31 g ai/ha, scale 0 to 100 (0 no effect, 100 complete control), read-out: Plant response rating, Field Violet): 100% | pest or weed control at 62 g/ha (field violet; Viola arvensis, post-emergence, 62 g ai/ha, scale 0 to 100 (0 no effect, 100 complete control), read-out: Plant response rating, Field Violet): 100% | pest or weed control at 125 g/ha (field violet; Viola arvensis, post-emergence, 125 g ai/ha, scale 0 to 100 (0 no effect, 100 complete control), read-out: Plant response rating, Field Violet): 100% | pest or weed control at 250 g/ha (field violet; Viola arvensis, post-emergence, 250 g ai/ha, scale 0 to 100 (0 no effect, 100 complete control), read-out: Plant response rating, Field Violet): 100% | pest or weed control at 31 g/ha (lambsquarters; Chenopodium album, post-emergence, 31 g ai/ha, scale 0 to 100 (0 no effect, 100 complete control), read-out: Plant response rating, Lambsquarters): 80% | pest or weed control at 62 g/ha (lambsquarters; Chenopodium album, post-emergence, 62 g ai/ha, scale 0 to 100 (0 no effect, 100 complete control), read-out: Plant response rating, Lambsquarters): 75% | pest or weed control at 125 g/ha (lambsquarters; Chenopodium album, post-emergence, 125 g ai/ha, scale 0 to 100 (0 no effect, 100 complete control), read-out: Plant response rating, Lambsquarters): 75% | pest or weed control at 250 g/ha (lambsquarters; Chenopodium album, post-emergence, 250 g ai/ha, scale 0 to 100 (0 no effect, 100 complete control), read-out: Plant response rating, Lambsquarters): 95% | pest or weed control at 31 g/ha (chamomile; Tripleurospermum inodorum, post-emergence, 31 g ai/ha, scale 0 to 100 (0 no effect, 100 complete control), read-out: Plant response rating, Chamomile): 10% | pest or weed control at 62 g/ha (chamomile; Tripleurospermum inodorum, post-emergence, 62 g ai/ha, scale 0 to 100 (0 no effect, 100 complete control), read-out: Plant response rating, Chamomile): 15% | pest or weed control at 125 g/ha (chamomile; Tripleurospermum inodorum, post-emergence, 125 g ai/ha, scale 0 to 100 (0 no effect, 100 complete control), read-out: Plant response rating, Chamomile): 20% | pest or weed control at 250 g/ha (chamomile; Tripleurospermum inodorum, post-emergence, 250 g ai/ha, scale 0 to 100 (0 no effect, 100 complete control), read-out: Plant response rating, Chamomile): 15% | pest or weed control at 31 g/ha (wild radish; Raphanus raphanistrum, post-emergence, 31 g ai/ha, scale 0 to 100 (0 no effect, 100 complete control), read-out: Plant response rating, Radish, Wild): 65% | pest or weed control at 62 g/ha (wild radish; Raphanus raphanistrum, post-emergence, 62 g ai/ha, scale 0 to 100 (0 no effect, 100 complete control), read-out: Plant response rating, Radish, Wild): 70% | pest or weed control at 125 g/ha (wild radish; Raphanus raphanistrum, post-emergence, 125 g ai/ha, scale 0 to 100 (0 no effect, 100 complete control), read-out: Plant response rating, Radish, Wild): 80% | pest or weed control at 250 g/ha (wild radish; Raphanus raphanistrum, post-emergence, 250 g ai/ha, scale 0 to 100 (0 no effect, 100 complete control), read-out: Plant response rating, Radish, Wild): 90%

FCc1cccc(Oc2ncc(Cl)cn2)c1-n1cc(I)cn1 [Compound 245]
Plant response rating, Blackgrass (blackgrass [1]; [3]): 0 | Plant response rating, Blackgrass (blackgrass [1]; 31 g ai/ha, scale 0-100): 0 | Plant response rating, Blackgrass (blackgrass [1]; 62 g ai/ha, scale 0-100): 10 | Plant response rating, Blackgrass (blackgrass [1]; 125 g ai/ha, scale 0-100): 65 | Plant response rating, Canarygrass (canarygrass; [3]): 0 | Plant response rating, Canarygrass (canarygrass; 31 g ai/ha, scale 0-100): 0 | Plant response rating, Canarygrass (canarygrass; 62 g ai/ha, scale 0-100): 15 | Plant response rating, Canarygrass (canarygrass; 125 g ai/ha, scale 0-100): 35 | Plant response rating, Foxtail, Green (green foxtail; [3]): 0 | Plant response rating, Foxtail, Green (green foxtail; 31 g ai/ha, scale 0-100): 0 | Plant response rating, Foxtail, Green (green foxtail; 62 g ai/ha, scale 0-100): 0 | Plant response rating, Foxtail, Green (green foxtail; 125 g ai/ha, scale 0-100): 35 | Plant response rating, Blackgrass (blackgrass [2]; Postemergence, 62 g ai/ha, scale 0 to 100 (0 no effect, 100 complete control)): 20 | Plant response rating, Blackgrass (blackgrass [2]; Postemergence, 31 g ai/ha, scale 0 to 100 (0 no effect, 100 complete control)): 10 | Plant response rating, Blackgrass (blackgrass [2]; Postemergence, 125 g ai/ha, scale 0 to 100 (0 no effect, 100 complete control)): 25 | Plant response rating, Blackgrass (blackgrass [2]; postemergence, 16 g ai/ha, scale 0 to 100, 0 no effect, 100 complete control): 5 | Plant response rating, Field Violet (field violet; 16 g ai/ha, scale 0-100): 25 | Plant response rating, Field Violet (field violet; [4]): 80 | Plant response rating, Field Violet (field violet; [5]): 90 | Plant response rating, Field Violet (field violet; [6]): 90 | Plant response rating, Lambsquarters (lambsquarters; 16 g ai/ha, scale 0-100): 65 | Plant response rating, Lambsquarters (lambsquarters; [4]): 80 | Plant response rating, Lambsquarters (lambsquarters; [5]): 85 | Plant response rating, Lambsquarters (lambsquarters; [6]): 95 | Plant response rating, Chamomile (chamomile; 16 g ai/ha, scale 0-100): 30 | Plant response rating, Chamomile (chamomile; [4]): 30 | Plant response rating, Chamomile (chamomile; [5]): 45 | Plant response rating, Chamomile (chamomile; [6]): 40 | Plant response rating, Radish, Wild (wild radish; 16 g ai/ha, scale 0-100): 35 | Plant response rating, Radish, Wild (wild radish; [4]): 45 | Plant response rating, Radish, Wild (wild radish; [5]): 55 | Plant response rating, Radish, Wild (wild radish; [6]): 85
